This note sets out measurements from patent US7022716B2, “Cyclic amine phenyl beta-3 adrenergic receptor agonists” (Wyeth, priority 2000, dated 2006).

The target of the experiment is T1, human β3 adrenergic receptor (Homo sapiens, UniProt P13945).
T1 construct: Full length β3 AR clones (402 amino acids) containing the last 6 amino acids of hβ3-AR are prepared; expressed in transfected cells; host or cells: CHO (Chinese hamster ovary) cells
Briefly: cAMP (SPA) response in CHO cells transfected with human β3 adrenergic receptor. The format is cell-based. Also on record: key: fraction of maximal isoproterenol (10^-5 M) response. The following applies: maximal response relative to maximal response of isoproterenol at 10^-5 M. As for the experimental part:
Binding to the receptors was measured in Chinese Hamster ovary (CHO) cells that were transfected with adrenergic receptors.
The corresponding primer sequences are described in Mantzoros, C. […] The four fragments are ligated into a pUC 18 plasmid (Gibco-BRL) and sequenced.
CHO cells were grown in 24-well tissue culture plates in Dulbecco's Modified Eagle Media with 10% fetal bovine serum, MEM non-essential amino acids, Penicillin-Streptompycin and Geneticin. On the day of test procedure, growth medium was replaced with preincubation media (Dulbecco's Modified Eagle, Media) and incubated for 30 minutes at 37° C. […] Test compounds were tested over a concentration range of 10^−9 M to 10^−5 M for β3 cells and 10^−8 to 10^−4 M for β1 and β2 transfected cells. Isoproterenol (10^−5 M) was used as an internal standard for comparison of activity. Cells were incubated at 37° C. on a rocker for 30 min with the β3 cells and 15 min for β1 and β2 cells. Incubation was stopped with the addition of 0.2N HCl and neutralized with 2.5N NaOH. The plates, containing the cells and neutralized media, were stored at −20 degrees celsius until ready to test for cAMP using the SPA test kit (Amersham).
Data Analysis and Results: Data collected from the SPA test procedure were analyzed as percent of the maximal isoproterenol response at 10^−5 M. Activity curves were plotted using the SAS statistical and graphics software.

T1 sequence (P13945 whole entry): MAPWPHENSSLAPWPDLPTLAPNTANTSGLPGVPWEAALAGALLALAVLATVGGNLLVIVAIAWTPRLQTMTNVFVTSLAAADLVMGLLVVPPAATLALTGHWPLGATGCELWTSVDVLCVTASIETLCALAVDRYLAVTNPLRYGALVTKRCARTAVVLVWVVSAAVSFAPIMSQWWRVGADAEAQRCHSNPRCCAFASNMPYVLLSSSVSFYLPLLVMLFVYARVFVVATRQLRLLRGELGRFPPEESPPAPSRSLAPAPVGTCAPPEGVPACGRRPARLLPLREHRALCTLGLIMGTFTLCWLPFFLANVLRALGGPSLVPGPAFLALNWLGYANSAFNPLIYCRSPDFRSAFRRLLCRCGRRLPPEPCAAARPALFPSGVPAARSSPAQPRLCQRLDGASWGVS

Regarding `CCCCOc1ccc(S(=O)(=O)Nc2ccc(N3CCC(NC[C@H](O)COc4cccc5[nH]c(=O)[nH]c45)CC3)cc2)cc1` [Example 358, 4-Butoxy-N-{4-[4-({(2S)-2-hydroxy-3-[(2-oxo-2,3-dihydro-1H-benzimidazol-4-yl)oxy]propyl}amino)-1-piperidinyl]phenyl}benzenesulfonamide], the “IA(β3)” value amounted to 1.1.

With `CCCCS(=O)(=O)Nc1ccc(N2CCC(NC[C@H](O)COc3ccc(O)c(NS(C)(=O)=O)c3)CC2)cc1` [Example 309, N-(4-{4-[((2S)-2-Hydroxy-3-{4-hydroxy-3-[(methylsulfonyl)amino]phenoxy}-propyl)amino]-1-piperidinyl}phenyl)-1-butanesulfonamide], the “IA(β3)” value was 1. Under `COc1ccc(OC)c(S(=O)(=O)Nc2ccc(N3CCC(NC[C@H](O)c4ccc(O)c(NS(C)(=O)=O)c4)CC3)cc2)c1` [Example 335, N-(4-{4-[((2R)-2-Hydroxy-2-{4-hydroxy-3-[(methylsulfonyl)amino]phenyl}ethyl)amino]-1-piperidinyl}phenyl)-2,5-dimethoxybenzenesulfonamide] stands 0.98; under `O=C1NC(=O)C(=Cc2ccc(N3CCC(NC[C@H](O)COc4cccc5[nH]c(=O)[nH]c45)CC3)c(Br)c2)S1` [Example 68, 5-(3-Bromo-4-{4-[(2S)-2-hydroxy-3-(2-oxo-2,3-dihydro-1H-benzoimidazol-4-yloxy)-propylamino]-piperidin-1-yl}-benzylidene)-thiazolidine-2,4-dione], 1; under `COc1ccc(S(=O)(=O)Nc2ccc(N3CCC(NCC(O)c4cccc(O)c4)CC3)cc2)cc1OC` (stereo not drawn) [Example 361, N-[4-(4-{[2-Hydroxy-2-(3-hydroxyphenyl)ethyl]amino}-1-piperidinyl)phenyl]-3,4-dimethoxybenzenesulfonamide], 0.55. With `O=c1[nH]c2cccc(OC[C@@H](O)CNC3CCN(c4ccc(NS(=O)(=O)c5ccc(C(F)(F)F)cc5)cc4)CC3)c2[nH]1` [Example 328], the “IA(β3)” value was found to be 0.89. Consider `CC(=O)Nc1ccc(N2CC(NC[C@H](O)COc3cccc4[nH]c5ccccc5c34)C2)cc1` [Example 415, N-[4-(3-{[(2S)-3-(9H-Carbazol-4-yloxy)-2-hydroxypropyl]amino}-1-azetidinyl)phenyl]acetamide], for which the “IA(β3)” value is listed as 0.35. Under `CS(=O)(=O)Nc1cc([C@@H](O)CNC2CCN(c3ccc(NC(=O)NCC(=O)O)cc3)CC2)ccc1O` [Example 378, {[(4-{4-[((2R)-2-Hydroxy-2-{4-hydroxy-3-[(methylsulfonyl)amino]phenyl}ethyl)amino]-1-piperidinyl}anilino)carbonyl]amino}acetic acid] stands 0.94.

Take `COc1ccc(S(=O)(=O)Nc2ccc(N3CCC(NC[C@H](O)COc4cccc5[nH]c6ccccc6c45)CC3)cc2)cc1OC` [Example 292, N-[4-(4-{[(2S)-3-(9H-Carbazol-4-yloxy)-2-hydroxypropyl]amino}-1-piperidinyl)phenyl]-3,4-dimethoxybenzenesulfonamide]: the “IA(β3)” value was 0.75. Next, `O=C(CCl)Nc1ccc(N2CCC(NC[C@H](O)COc3cccc4[nH]c(=O)[nH]c34)CC2)cc1` [Example 382, 2-Chloro-N-{4-[4-({(2S)-2-hydroxy-3-[(2-oxo-2,3-dihydro-1H-benzimidazol-4-yl)oxy]propyl}amino)-1-piperidinyl]phenyl}acetamide]: 0.64; `CCCCS(=O)(=O)N(CC(=O)OCc1ccccc1)c1ccc(N2CCC(NC[C@H](O)c3ccc(O)c(NS(C)(=O)=O)c3)CC2)cc1` [Example 342]: 1. Regarding `COc1ccc(Br)cc1S(=O)(=O)N(c1ccc(N2CCC(NC[C@H](O)COc3cccc4[nH]c(=O)[nH]c34)CC2)cc1)S(=O)(=O)c1cc(Br)ccc1OC` [Example 337], the “IA(β3)” value is 0.72. Next, `COc1ccc(Br)cc1S(=O)(=O)Nc1ccc(N2CCC(NC[C@H](O)COc3cccc4[nH]c(=O)[nH]c34)CC2)cc1` [Example 338, 5-Bromo-N-{4-[4-(f{(2S)-2-hydroxy-3-[(2-oxo-2,3-dihydro-1H-benzimidazol-4-yl)oxy]propyl}amino)-1-piperidinyl]phenyl}-2-methoxybenzenesulfonamide]: 1; `CC(C)C[C@H](NC(=O)c1ccc(N2CCC(NC[C@H](O)c3ccc(O)c(NS(C)(=O)=O)c3)CC2)cc1)C(=O)O` [Example 199, (2S)-2-(4-{4-[(2R)-2-Hydroxy-2-(4-hydroxy-3-methanesulfonylamino-phenyl)-ethylamino]-piperidin-1-yl}-benzoylamino)-4-methyl-pentanoic acid]: 1. Next, `CCOC(=O)CNC(=O)Nc1ccc(N2CCC(NC[C@H](O)c3ccc(O)c(NS(C)(=O)=O)c3)CC2)cc1` [Example 377, Ethyl {[(4-{4-[((2R)-2-hydroxy-2-{4-hydroxy-3-[(methylsulfonyl)amino]phenyl}-ethyl)amino]-1-piperidinyl}anilino)carbonyl]amino}acetate]: 0.66. Under `COc1ccc(S(=O)(=O)Nc2ccc(N3CCC(NC[C@H](O)c4ccc(O)c(O)c4)CC3)cc2)cc1` [Example 266, N-[4-(4-{[(2R)-2-(3,4-Dihydroxyphenyl)-2-hydroxyethyl]amino}-1-piperidinyl)phenyl]-4-methoxybenzenesulfonamide] stands 0.86. As for `CCOC(=O)c1ccc(N2CCC(NC[C@H](O)c3cccc(Cl)c3)CC2)cc1.Cl` [Example 181, {4-[(2R)-2-(3-Chloro-phenyl)-2-hydroxy-ethylamino]-piperidin-1-yl}-benzoic acid ethyl ester hydrochloride], the “IA(β3)” value worked out at 0.56. As for `O=C(NCc1ccc(S(=O)(=O)Nc2ccc(N3CCC(NC[C@H](O)COc4ccccc4)CC3)cc2)s1)c1ccccc1` [Example 348], the “IA(β3)” value stood at 0.63. Next, `O=c1[nH]c2cccc(OC[C@@H](O)CNC3CCN(c4ccc(NS(=O)(=O)c5ccc(Cl)cc5)cc4)CC3)c2[nH]1` [Example 331, 4-Chloro-N-{4-[4-({(2S)-2-hydroxy-3-[(2-oxo-2,3-dihydro-1H-benzimidazol-4-yl)oxy]propyl}amino)-1-piperidinyl]phenyl}benzenesulfonamide]: 1; `CCCCCCNC(=O)Nc1ccc(S(=O)(=O)Nc2ccc(N3CCC(NC[C@H](O)c4ccc(O)c(NS(C)(=O)=O)c4)CC3)cc2)cc1` [Example 276, 4-{[(Hexylamino)carbonyl]amino}-N-(4-{4-[((2R)-2-hydroxy-2-{4-hydroxy-3-[(methylsulfonyl)amino]phenyl}ethyl)amino]-1-piperidinyl}phenyl)benzenesulfonamide]: 1.1. Next, `CCCCCCNC(=O)Nc1ccc(S(=O)(=O)Nc2ccc(N3CCC(NCC(O)c4ccc(C)nc4)CC3)cc2)cc1` (stereo not drawn) [Example 271, 4-{[(Hexylamino)carbonyl]amino}-N-[4-(4-{[2-hydroxy-2-(6-methyl-3-pyridinyl)ethyl]amino}-1-piperidinyl)phenyl]benzenesulfonamide]: 0.84. Under `O=c1[nH]c2cccc(OC[C@@H](O)CNC3CCN(c4ccc(NS(=O)(=O)c5cccs5)cc4)CC3)c2[nH]1` [Example 362, N-{4-[4-({(2S)-2-Hydroxy-3-[(2-oxo-2,3-dihydro-1H-benzimidazol-4-yl)oxy]propyl}-amino)-1-piperidinyl]phenyl}-2-thiophenesulfonamide] stands 0.9; under `CS(=O)(=O)Nc1cc([C@@H](O)CNC2CCN(c3ccc(NS(=O)(=O)CC(=O)O)cc3)CC2)ccc1O` [Example 323, [(4-{4-[((2R)-2-Hydroxy-2-{4-hydroxy-3-[(methylsulfonyl)amino]phenyl}ethyl)amino]-1-piperidinyl}anilino)sulfonyl]acetic acid], 0.92.

In the case of `COc1ccc(S(=O)(=O)Nc2ccc(N3CCC(NC[C@H](O)c4ccccc4)CC3)cc2)cc1` [Example 261, N-[4-(4-{[(2R)-2-Hydroxy-2-phenylethyl]amino}-1-piperidinyl)phenyl]-4-methoxybenzenesulfonamide], the “IA(β3)” value was 0.73.

In the case of `CCCCS(=O)(=O)Nc1ccc(N2CCC(NC[C@H](O)COc3ccc(O)c(NS(=O)(=O)c4ccccc4)c3)CC2)cc1` [Example 315, N-[5-({(2S)-3-[(1-{4-[(Butylsulfonyl)amino]phenyl}-4-piperidinyl)amino]-2-hydroxypropyl}oxy)-2-hydroxyphenyl]benzenesulfonamide], the “IA(β3)” value stood at 1.2. `N#Cc1ccc(S(=O)(=O)Nc2ccc(N3CCC(NC[C@H](O)COc4cccc5[nH]c(=O)[nH]c45)CC3)cc2)cc1` [Example 284, 4-Cyano-N-{4-[4-({(2S)-2-hydroxy-3-[(2-oxo-2,3-dihydro-1H-benzimidazol-4-yl)oxy]propyl}amino)-1-piperidinyl]phenyl}benzenesulfonamide]: the “IA(β3)” value turned out to be 0.87. Under `CS(=O)(=O)Nc1cc([C@@H](O)CNC2CCN(c3ccc(C(=O)NCC(=O)O)cc3)CC2)ccc1O` [Example 197, [(4-{4-[((2R)-2-Hydroxy-2-{4-hydroxy-3-[(methylsulfonyl)amino]phenyl}ethyl)amino]-1-piperidinyl}benzoyl)amino]acetic acid] stands 0.94.
